This is an account of results in the OligoGym collection.

“And” between values parts separate entries of the source, which are not always exact repeats. Equal values may be shown once. After the bases stand the sugars from the 5' end (letter, count) and the backbone: PS all phosphorothioate, else s phosphorothioate and o phosphodiester by linkage. Methylation of C is not given here. k = constrained ethyl (cEt); d = 2'-deoxy (DNA)

The data set deals with MALAT1. To be noted: ASO, A431, 0.005 µM.
Take CTGAACCGGAGCAGGA (sugars k3 d10 k3, PS): the target mRNA inhibition is -13%.

Take CTGAACTATCACAATT (sugars k3 d10 k3, PS): the target mRNA inhibition was 28%.

On to CTGCAAGGTCTCATAC (sugars k3 d10 k3, PS), for which the target mRNA inhibition was determined as 24%.

In the case of CTGCAGATGCAAGTTA (sugars k3 d10 k3, PS), the target mRNA inhibition was found to be 49%.

In the case of CTGCAGTTTCTATAGT (sugars k3 d10 k3, PS), the target mRNA inhibition amounted to 22%.

Consider CTGCCAACTAATTGCC (sugars k3 d10 k3, PS), for which the target mRNA inhibition is -32%.

For the sequence CTGCCTCAATGCCTAC (sugars k3 d10 k3, PS), the target mRNA inhibition is 44%.

On to CTGCGACTTGCTCCCA (sugars k3 d10 k3, PS), for which the target mRNA inhibition turned out to be 10%.

Take CTGCGGTTTCCTCAAG (sugars k3 d10 k3, PS): the target mRNA inhibition amounted to 29%.

For CTGCTTACAGATTTGC (sugars k3 d10 k3, PS), the target mRNA inhibition was found to be 49%.

With CTGGAAGCTCCTTCTA (sugars k3 d10 k3, PS), the target mRNA inhibition stood at 25%.

As for CTGGCATGCTGGTCTA (sugars k3 d10 k3, PS), the target mRNA inhibition was found to be 19%.

With CTGTCTGAGGCAAACG (sugars k3 d10 k3, PS), the target mRNA inhibition worked out at 37%.

On to CTGTTAAGACCATCCC (sugars k3 d10 k3, PS), for which the target mRNA inhibition is 46%.

As for CTTCAGGATCATTAAG (sugars k3 d10 k3, PS), the target mRNA inhibition came to 3%.

For the sequence CTTCCCGTACTTCTGT (sugars k3 d10 k3, PS), the target mRNA inhibition is 43%.

Consider CTTCGGATGCTTCACT (sugars k3 d10 k3, PS), for which the target mRNA inhibition was found to be 33%.

As to CTTCGGTTAAAAATAG (sugars k3 d10 k3, PS), the target mRNA inhibition worked out at 4%.

On to CTTGAAACCGATTATG (sugars k3 d10 k3, PS), for which the target mRNA inhibition was found to be 38%.

CTTGAATTACTTCCGT (sugars k3 d10 k3, PS): the target mRNA inhibition was 56% and 40%.

Turning to CTTGACCTTAGGATAA (sugars k3 d10 k3, PS), the target mRNA inhibition is 44%.

Turning to CTTGGGAAATCTTAGA (sugars k3 d10 k3, PS), the target mRNA inhibition is -11%.

As for CTTTAAATGACGCAAT (sugars k3 d10 k3, PS), the target mRNA inhibition amounted to 35%.

As to CTTTAAATTGGTAGCT (sugars k3 d10 k3, PS), the target mRNA inhibition worked out at 45%.

As for CTTTAAGCCTTCGGTG (sugars k3 d10 k3, PS), the target mRNA inhibition was -3%.

With CTTTACAGAAGTCTCG (sugars k3 d10 k3, PS), the target mRNA inhibition worked out at 22%.

For CTTTATCACTCAGCTG (sugars k3 d10 k3, PS), the target mRNA inhibition turned out to be 37%.

Consider CTTTCATAGAGCCTTC (sugars k3 d10 k3, PS), for which the target mRNA inhibition was determined as 43%.

Consider GAAACCGATTATGGAT (sugars k3 d10 k3, PS), for which the target mRNA inhibition is 34%.

As to GAAACCTACAACACCC (sugars k3 d10 k3, PS), the target mRNA inhibition was found to be 20%.

With GAAAGTGCCATGGTTG (sugars k3 d10 k3, PS), the target mRNA inhibition worked out at 41%.

GAACAACTCGCATCAC (sugars k3 d10 k3, PS): the target mRNA inhibition came out at 15%.

Consider GAACCACAACAATTTA (sugars k3 d10 k3, PS), for which the target mRNA inhibition was 19%.

Turning to GAACCGGAGCAGGAAG (sugars k3 d10 k3, PS), the target mRNA inhibition came out at 28%.

As to GAAGAATACCATCTGA (sugars k3 d10 k3, PS), the target mRNA inhibition worked out at 5%.

For the sequence GAAGAATCCCCCCCAA (sugars k3 d10 k3, PS), the target mRNA inhibition came to 11%.

Take GAAGAGATACCTGTCT (sugars k3 d10 k3, PS): the target mRNA inhibition was -22%.

Regarding GAAGAGCCAAGCACTC (sugars k3 d10 k3, PS), the target mRNA inhibition is -9%.

In the case of GAAGTCTCGGGCTGCA (sugars k3 d10 k3, PS), the target mRNA inhibition was determined as 6%.
